What was measured:
[1] = 101.33 kPa, Liquid
[2] = xn = mol fraction of the nth substance listed; settings: 101 kPa, Liquid

CCCCCO [pentan-1-ol]
[1]
Settings	mass density [kg/m3]	viscosity [mPa·s]
293.15 K	814.51	4.117
298.15 K	810.73	3.556
303.15 K	806.77	3.06
313.15 K	799.05	2.332
323.15 K	789.81	1.822
333.15 K	781.81	1.44
343.15 K	772.84	1.146
353.15 K	764.79	0.931
363.15 K	757.17	0.767

CCOC(=O)OCC [diethyl carbonate] + CCCCCO
[2]
Settings	mass density, x1 = 0.1016 [kg/m3]	mass density, x1 = 0.2056 [kg/m3]	mass density, x1 = 0.2991 [kg/m3]	viscosity, x1 = 0.1016 [mPa·s]	viscosity, x1 = 0.2056 [mPa·s]	viscosity, x1 = 0.2991 [mPa·s]
293.15 K	831.8	849.16	864.58	2.879	2.155	1.735
298.15 K	827.59	844.75	859.91	2.522	1.907	1.549
303.15 K	823.06	840.03	854.97	2.206	1.69	1.386
313.15 K	814.72	831.26	845.78	1.723	1.351	1.132
323.15 K	805.16	821.48	835.87	1.383	1.109	0.939
333.15 K	796.72	812.44	826.67	1.122	0.918	0.79
343.15 K	787.31	802.62	816.48	0.919	0.766	0.67
353.15 K	778.85	793.74	807.26	0.764	0.65	0.576
363.15 K	770.78	785.19	798.3	0.644	0.557	0.501

CCCO [propan-1-ol]
[1]
Settings	mass density [kg/m3]	viscosity [mPa·s]
293.15 K	803.62	2.238
298.15 K	799.41	1.981
303.15 K	795.27	1.745
313.15 K	786.62	1.381
323.15 K	773.91	1.115
333.15 K	767.31	0.907
343.15 K	755.95	0.742
353.15 K	748.41	0.615
363.15 K	739.7	0.515

CCOC(=O)OCC [diethyl carbonate]
[1]
Settings	mass density [kg/m3]	viscosity [mPa·s]
293.15 K	975	0.8
298.15 K	968.97	0.746
303.15 K	962.39	0.695
313.15 K	952.32	0.61
323.15 K	939.78	0.541
333.15 K	928.69	0.483
343.15 K	916.33	0.435
353.15 K	905.02	0.393
363.15 K	893.71	0.358

CCCCO [butan-1-ol]
[1]
Settings	mass density [kg/m3]	viscosity [mPa·s]
293.15 K	809.82	2.963
298.15 K	806.06	2.619
303.15 K	802.03	2.298
313.15 K	793.29	1.786
323.15 K	786.55	1.421
333.15 K	777.81	1.137
343.15 K	767.03	0.92
353.15 K	757.52	0.759
363.15 K	749.38	0.63

CCOC(=O)OCC [diethyl carbonate] + CCCCO
[2]
Settings	mass density, x1 = 0.1016 [kg/m3]	mass density, x1 = 0.2023 [kg/m3]	mass density, x1 = 0.2974 [kg/m3]	viscosity, x1 = 0.1016 [mPa·s]	viscosity, x1 = 0.2023 [mPa·s]	viscosity, x1 = 0.2974 [mPa·s]
293.15 K	830.56	849.89	867.23	2.161	1.681	1.38
298.15 K	826.34	845.4	862.6	1.909	1.504	1.254
303.15 K	821.75	840.53	857.48	1.685	1.339	1.13
313.15 K	812.55	831.22	847.88	1.345	1.091	0.932
323.15 K	804.95	822.83	838.91	1.097	0.906	0.785
333.15 K	795.85	813.37	829.07	0.904	0.761	0.668
343.15 K	784.94	802.09	817.6	0.749	0.642	0.572
353.15 K	775.15	792.01	807.21	0.63	0.549	0.496
363.15 K	766.42	782.78	797.61	0.536	0.475	0.434

CCOC(=O)OCC [diethyl carbonate] + CCCO
[2]
Settings	mass density, x1 = 0.0993 [kg/m3]	mass density, x1 = 0.2003 [kg/m3]	mass density, x1 = 0.3011 [kg/m3]	viscosity, x1 = 0.0993 [mPa·s]	viscosity, x1 = 0.2003 [mPa·s]	viscosity, x1 = 0.3011 [mPa·s]
293.15 K	829.06	852	872.49	1.668	1.347	1.147
298.15 K	824.24	846.98	867.35	1.49	1.211	1.037
303.15 K	819.57	841.86	861.83	1.328	1.089	0.938
313.15 K	810.34	832.49	852.34	1.073	0.896	0.783
323.15 K	798.04	819.74	839.43	0.887	0.751	0.666
333.15 K	790.59	811.83	831	0.739	0.636	0.572
343.15 K	778.86	799.8	818.79	0.618	0.542	0.493
353.15 K	770.55	790.85	809.27	0.524	0.466	0.43
363.15 K	761.19	780.98	799	0.448	0.405	0.378

Reference: the NIST ThermoML archive (doi:10.1021/je0600808)
